This note sets out measurements from patent publication US20110179505A1, “RODENT CANCER MODEL FOR HUMAN FGFR4 ARG388 POLYMORPHISM” (priority 2008, published 2011).

Entries after “also recorded” stand apart in the source; their conditions may differ.

Holding throughout (type): cell-based, human
The test system of assay [1] is FGFR4 Arg388 expressing MDA-MB-231 cells. Put plainly: Apoptosis in response to Gefitinib treatment. As to conditions: Gefitinib 20 μM (p=0.012) and 10 μM (p=0.0022); 96 hours. As for the experimental part:
In a preferred embodiment, the proliferation rate is determined via a MTT proliferation assay, the apoptosis is determined via FACS analysis (Nicoletti et al., 1991, J. Immunol. Methods, 139: 271-279), and/or the migration is determined with a Boyden Chamber Assay, e.g. as described in the Examples below.
To further analyze the physiological connection between the EGFR and the FGFR4 we investigated the differences between the different FGFR4 alleles in MDA-MB-231 overexpressing cells upon exposure to Gefitinib. […]. Therefore, physiological processes that require the dimerization of the EGFR and the FGFR4 should lead to different results in the presence of Gefitinib compared to those obtained without an EGFR inhibitor. […]. Therefore, we investigated the impact of FGFR4 Arg388 overexpression on apoptosis in response to Gefitinib treatment in MDA-MB-231 cells. […]; 10 μM-p=0.0022). […].

The test system of assay [2] is MDA-MB-231 cells expressing the empty pLXSN vector. Kind of assay: MTT-proliferation assay with Gefitinib. As to conditions: up to 20 μM of Gefitinib. On the technique in general: Formazan colour is commonly taken as a measure of viable cells.
Assay [3] has as its system MDA-MB-231 cells expressing FGFR4 Gly388. As to conditions: up to 20 μM of Gefitinib.
Assay [4] concerns MDA-MB-231 cells expressing the FGFR4 Arg388 allele. As to conditions: FIG. 20C.
For assay [5], the system named is MDA-MB-231 cells overexpressing the FGFR4 Arg388 allele. Conditions: FGFR4 Arg388 expressing cells; Gefitinib 0.025-20 μM.

On to `COc1cc2ncnc(Nc3ccc(F)c(Cl)c3)c2cc1OCCCN1CCOCC1` [Gefitinib], for which the “apoptotic response in FGFR4 Arg388 cells compared to FGFR4 Gly388 cells” value in assay [1] is given as “significantly increased apoptotic response; also recorded: significant increase in apoptosis”. Also, the “response in MTT-proliferation assay” value in assay [2] is “no response”; in assay [3] it was “no response”; in assay [5], “typical dose response curve”. Besides, the “migration in FGFR4 Arg388 cells compared to FGFR4 Gly388 cells in response to Gefitinib” value in assay [4] is reported as “decrease in migration”.
